# Source: ChEMBL document CHEMBL1201862, “PubChem BioAssay data set” (2004)
#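 Test compounds were applied to cells in 96-well plates for 48 hours at 5 doses. GI50: concentration for 50% inhibition of growth.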 The source made the active and inactive calls. No stated cut-off is given here; in the data, active = GI50 up to about 1.1 µM and inactive = higher.
# Columns and labels:
# Experiment in all cases: inhibition of tumour cell growth, NCI panel, 48 h
# CAKI-1 = system: CAKI-1
# OVCAR-4 = system: OVCAR-4
# NCI-H522 = system: NCI-H522
# Hs-578T = system: Hs-578T
# OVCAR-8 = system: OVCAR-8
# UACC-62 = system: UACC-62
# NCI-H226 = system: NCI-H226
# HCC 2998 = system: HCC 2998
# KM12 = system: KM12
# HCT-116 = system: HCT-116
# CCRF-CEM = system: CCRF-CEM
# SF-295 = system: SF-295
# HOP-92 = system: HOP-92
# HOP-62 = system: HOP-62
# SNB-19 = system: SNB-19
# SK-MEL-2 = system: SK-MEL-2
# UACC-257 = system: UACC-257
# UO-31 = system: UO-31
# NCI/ADR-RES = system: NCI/ADR-RES
# A498 = system: A498
Compound,GI50 (CAKI-1),GI50 (OVCAR-4),GI50 (NCI-H522),GI50 (Hs-578T),GI50 (OVCAR-8),GI50 (UACC-62),GI50 (NCI-H226),GI50 (HCC 2998),GI50 (KM12),GI50 (HCT-116),GI50 (CCRF-CEM),GI50 (SF-295),GI50 (HOP-92),GI50 (HOP-62),GI50 (SNB-19),GI50 (SK-MEL-2),GI50 (UACC-257),GI50 (UO-31),GI50 (NCI/ADR-RES),GI50 (A498)
COC(=O)c1ccccc1C1CN=NC12Cc1c(ccc3c1CCC3)C2=O (stereo unspecified),> 100 µM (inactive),45.2 µM (inactive),0.635 µM (active),71.8 µM (inactive),92.5 µM (inactive),55.1 µM (inactive),41.5 µM (inactive),> 100 µM (inactive),38.4 µM (inactive),43.2 µM (inactive),49.5 µM (inactive),47.3 µM (inactive),27.4 µM (inactive),> 100 µM (inactive),> 100 µM (inactive),35.1 µM (inactive),15.7 µM (inactive),80.5 µM (inactive),31.1 µM (inactive),
O=[N+]([O-])c1ccc2[nH]c(-c3ccc(Cl)cc3)nc2c1,31.1 µM (inactive),32.7 µM (inactive),12.6 µM (inactive),25.5 µM (inactive),30.1 µM (inactive),21.2 µM (inactive),22.3 µM (inactive),,,17.3 µM (inactive),,20.3 µM (inactive),29 µM (inactive),21.5 µM (inactive),26 µM (inactive),,20.5 µM (inactive),23.9 µM (inactive),21.2 µM (inactive),
CCOC(=O)c1c(N2CCCC2)[nH]c(=O)c(C(c2ccc(N(C)C)cc2)c2c(O)c(C(=O)OCC)c(N3CCCC3)[nH]c2=O)c1O,> 100 µM (inactive),> 100 µM (inactive),> 100 µM (inactive),> 100 µM (inactive),> 100 µM (inactive),> 100 µM (inactive),> 100 µM (inactive),> 100 µM (inactive),> 100 µM (inactive),> 100 µM (inactive),> 100 µM (inactive),> 100 µM (inactive),> 100 µM (inactive),> 100 µM (inactive),> 100 µM (inactive),,> 100 µM (inactive),> 100 µM (inactive),> 100 µM (inactive),> 100 µM (inactive)
C=C(C)[C@@]1(O)O[C@H]2C[C@@]3(C)OC(=CC3=O)/C(C)=C\[C@@H]3OC(=O)[C@@]1(C)[C@H]32,19.6 µM (inactive),20.7 µM (inactive),3.61 µM (inactive),45.8 µM (inactive),27 µM (inactive),14.1 µM (inactive),39.3 µM (inactive),15.3 µM (inactive),15.1 µM (inactive),7.64 µM (inactive),3.94 µM (inactive),23.7 µM (inactive),20.4 µM (inactive),21.6 µM (inactive),> 58.7 µM (inactive),14 µM (inactive),23.2 µM (inactive),30.1 µM (inactive),13.1 µM (inactive),
CC1CCCN(CC(O)CN2CCCc3ccccc32)C1 (stereo unspecified),> 100 µM (inactive),> 100 µM (inactive),64.4 µM (inactive),56.2 µM (inactive),> 100 µM (inactive),> 100 µM (inactive),> 100 µM (inactive),,> 100 µM (inactive),> 100 µM (inactive),> 100 µM (inactive),> 100 µM (inactive),,> 100 µM (inactive),> 100 µM (inactive),> 100 µM (inactive),> 100 µM (inactive),76 µM (inactive),> 100 µM (inactive),> 100 µM (inactive)
NNc1nnc(-c2nnc(NN)o2)o1,> 10 µM (inactive),> 10 µM (inactive),,> 10 µM (inactive),> 10 µM (inactive),> 10 µM (inactive),> 10 µM (inactive),> 10 µM (inactive),> 10 µM (inactive),> 10 µM (inactive),> 10 µM (inactive),> 10 µM (inactive),> 10 µM (inactive),> 10 µM (inactive),> 10 µM (inactive),,> 10 µM (inactive),> 10 µM (inactive),> 10 µM (inactive),> 10 µM (inactive)
OCC1C(OCc2ccccc2)C(OCc2ccccc2)C(OCc2ccccc2)CN1Cc1ccccc1 (stereo unspecified),> 100 µM (inactive),46.7 µM (inactive),27.4 µM (inactive),24.6 µM (inactive),29.9 µM (inactive),> 100 µM (inactive),33.8 µM (inactive),28.2 µM (inactive),16.8 µM (inactive),17.3 µM (inactive),28.8 µM (inactive),30.3 µM (inactive),9.64 µM (inactive),33 µM (inactive),96.8 µM (inactive),,19.6 µM (inactive),18.4 µM (inactive),26.7 µM (inactive),
CC1CCCC(C(O)CC2CC(=O)NC(=O)C2)C1O (stereo unspecified),> 100 µM (inactive),> 100 µM (inactive),,> 100 µM (inactive),> 100 µM (inactive),> 100 µM (inactive),> 100 µM (inactive),> 100 µM (inactive),> 100 µM (inactive),> 100 µM (inactive),> 100 µM (inactive),> 100 µM (inactive),> 100 µM (inactive),> 100 µM (inactive),> 100 µM (inactive),> 100 µM (inactive),> 100 µM (inactive),> 100 µM (inactive),> 100 µM (inactive),> 100 µM (inactive)
CC(C(=O)O)C(C)(O)C(=O)O (stereo unspecified),> 100 µM (inactive),> 100 µM (inactive),> 100 µM (inactive),> 100 µM (inactive),> 100 µM (inactive),> 100 µM (inactive),> 100 µM (inactive),> 100 µM (inactive),> 100 µM (inactive),> 100 µM (inactive),> 100 µM (inactive),,,,> 100 µM (inactive),> 100 µM (inactive),> 100 µM (inactive),> 100 µM (inactive),> 100 µM (inactive),> 100 µM (inactive)
Sc1ncc2[nH]nnc2n1,> 100 µM (inactive),> 100 µM (inactive),> 100 µM (inactive),> 100 µM (inactive),> 100 µM (inactive),,> 100 µM (inactive),> 100 µM (inactive),> 100 µM (inactive),> 100 µM (inactive),> 100 µM (inactive),> 100 µM (inactive),> 100 µM (inactive),> 100 µM (inactive),> 100 µM (inactive),,> 100 µM (inactive),> 100 µM (inactive),> 100 µM (inactive),> 100 µM (inactive)
COc1ccc(CCCCNCc2cccc(CNCCCCc3ccc(OC)cc3)c2)cc1,1.8 µM (inactive),2.03 µM (inactive),1.88 µM (inactive),1.69 µM (inactive),1.8 µM (inactive),1.85 µM (inactive),0.385 µM (active),0.308 µM (active),1.77 µM (inactive),1.94 µM (inactive),1.67 µM (inactive),1.93 µM (inactive),1.44 µM (inactive),2.19 µM (inactive),1.71 µM (inactive),1.91 µM (inactive),2.59 µM (inactive),1.35 µM (inactive),1.8 µM (inactive),
CC(=O)OCC1OC(n2ncc(=O)[nH]c2=O)C(OC(C)=O)C1OC(C)=O (stereo unspecified),9.4 µM (inactive),> 100 µM (inactive),19.1 µM (inactive),19.1 µM (inactive),14.7 µM (inactive),23.2 µM (inactive),15.3 µM (inactive),26.1 µM (inactive),11.3 µM (inactive),1.07 µM (active),0.718 µM (active),5.27 µM (inactive),> 100 µM (inactive),21.7 µM (inactive),,,,,61.7 µM (inactive),
Cc1ccc2c(O)cc(-c3ccc4ccccc4c3)nc2n1,,6.25 µM (inactive),3.32 µM (inactive),3.1 µM (inactive),5.82 µM (inactive),3.64 µM (inactive),5.81 µM (inactive),10.8 µM (inactive),3.21 µM (inactive),,3.66 µM (inactive),,1.5 µM (inactive),7.13 µM (inactive),9.48 µM (inactive),5.97 µM (inactive),5.58 µM (inactive),8 µM (inactive),4.58 µM (inactive),3.4 µM (inactive)
CCc1cccc2c3c([nH]c12)-c1ccccc1NC(=O)C3,43.6 µM (inactive),,,30.7 µM (inactive),> 100 µM (inactive),65.9 µM (inactive),14.1 µM (inactive),,7.06 µM (inactive),,> 100 µM (inactive),> 100 µM (inactive),> 100 µM (inactive),> 100 µM (inactive),> 100 µM (inactive),> 100 µM (inactive),> 100 µM (inactive),> 100 µM (inactive),> 100 µM (inactive),19.5 µM (inactive)
O=C1CSC(c2ccc(Cl)cc2)N1c1ccc(-c2ccc(-n3c(-c4ccccc4)nc4ccccc4c3=O)cc2)cc1 (stereo unspecified),29.4 µM (inactive),19.3 µM (inactive),25.2 µM (inactive),28.8 µM (inactive),54.8 µM (inactive),20.2 µM (inactive),,93.5 µM (inactive),26.2 µM (inactive),24.8 µM (inactive),30.6 µM (inactive),37.5 µM (inactive),11.4 µM (inactive),61.4 µM (inactive),38.5 µM (inactive),51.5 µM (inactive),> 100 µM (inactive),10.6 µM (inactive),20 µM (inactive),51.2 µM (inactive)
COc1ccc(C2(O)C(S(=O)(=O)c3ccc(C)cc3)=Cc3ccc(OC)cc32)cc1 (stereo unspecified),,,39.9 µM (inactive),23.6 µM (inactive),44.3 µM (inactive),,> 100 µM (inactive),> 100 µM (inactive),> 100 µM (inactive),> 100 µM (inactive),> 100 µM (inactive),28.2 µM (inactive),,21.2 µM (inactive),43.7 µM (inactive),43.2 µM (inactive),> 100 µM (inactive),,> 100 µM (inactive),44.5 µM (inactive)
